Values quoted from earlier work in PMC2785207 (The Journal of Biological Chemistry, 2009).

Assays:
CobB = conditions: E. coli sirtuin CobB; ref [17], [18]
Sir2 = conditions: reaction product; reacts with the O-alkylamidate to regenerate NAD+ and acetyl lysine; ref [14], [15]

Q: With `Cc1cc2nc[nH]c2cc1C` [5,6-dimethylbenzimidazole] as the compound, how does the “ribosylation by CobB” value (CobB) read?
A: ribosylates

Q: For `NC(=O)c1cccnc1` [nicotinamide], which “inhibition of the Sir2 deacetylation reaction” value (Sir2) is on record?
A: inhibited
